{
  "source": "patent US20100323955A1",
  "about": "“METHODS FOR TREATING OBESITY AND OBESITY RELATED DISEASES AND DISORDERS” (AMYLIN PHARMACEUTICALS, INC., priority 2007, published 2010)",
  "key": {"[1]": {"test": "Example 4: amylin and phentermine in DIO rats, body weight and body composition", "assay_type": "in vivo, rat", "conditions": "after two weeks, FIG. 11C", "experimental": "The combination of amylin and catecholaminergic agonist, phentermine, were also tested for effects on changes in body weight and body composition. Phentermine is classically referred to as a catecholaminergic agonist as it actually hits NA/5-HT receptors. DIO male rats were fattened and divided into four treatment groups, as described above. Each group was implanted with subcutaneous osmotic mini-pumps and/or inserted with an oral gavage, designed to deliver vehicle, phentermine (10 mg/kg/day), amylin (100 μg/kg/day) or phentermine (10 mg/kg/day)+amylin (100 μg/kg/day) for a 14 day period. The mini-pump contained either vehicle (50% DMSO in water) or amylin while the oral gavage administered either sterile water or phentermine Body weight was recorded daily and body composition was measured prior to and after drug treatment using NMR."}, "[2]": {"test": "Example 4: amylin and sibutramine in DIO rats, body weight and body composition", "assay_type": "in vivo, rat", "conditions": "after two weeks, FIG. 10C", "experimental": "(§1) Rat amylin was dissolved in 50% DMSO in sterile water and sibutramine was dissolved in sterile water. Each group was implanted with subcutaneous osmotic mini-pumps designed to deliver vehicle, sibutramine (3 mg/kg/day) or amylin (100 μg/kg/day) for a 14 day period. Body weight and food intake were recorded daily. Body composition was measured prior to and after drug treatment using NMR (Echo Medical Systems, Houston, Tex.). For body composition measurements, rats were briefly placed (˜1 min) in a well-ventilated plexiglass tube that was then inserted into a specialized rodent NMR machine. Rats were scanned prior to pump implantation and on the final day of the experiment. This enabled the calculation of changes in actual grams of fat and dry lean tissue (e.g., grams of body fat after treatment−grams of body fat at baseline=change in grams of body fat) and changes in % body composition for fat and dry lean tissue (e.g., % body fat after treatment−% body fat at baseline=change in % body fat)."}, "[3]": {"test": "Example 3: serum leptin levels (immunoassay) in DIO prone and normal HSD rats after amylin", "assay_type": "in vivo, rat", "conditions": "amylin 100 μg/kg/day, 14 days, FIG. 8", "experimental": "DIO prone and normal HSD rats were divided into three treatment groups. Two groups were implanted with subcutaneous osmotic mini-pumps (DURECT Corp., Cupertino, Calif.) designed to deliver vehicle or amylin (100 μg/kg/day) and the third group was pair-fed to the amount consumed by the amylin-treated group for a 14 day period. Serum leptin levels were determined by immunoassays using a commercial kit (Linco Research, Inc., St. Charles, Mo.). […] Thus, DIO prone rats are hyper-leptinemic."}, "[4]": {"test": "Example 6: amylin and exendin-4 analog in DIO rats, body weight and body composition", "assay_type": "in vivo, rat", "conditions": "after two weeks, FIG. 15C", "experimental": "[…]. Prior to drug administration rats had typically attained a mean body weight of 500 g Exendin-4 analog was administered by minipump at a range of doses (0.3, 1, 3, 10, 30 μg/kg/day). Amylin (dissolved in 50% DMSO in water) or vehicle was administered by mini-pump (100 μg/kg/day). Body weight and food intake was recorded daily. Body composition was measured prior to and after drug treatment using NMR (Echo Medical Systems, Houston, Tex.). For body composition measurements, rats were briefly placed (˜1 min) in a well-ventilated plexiglass tube that was then inserted into a specialized rodent NMR machine. Rats were scanned prior to pump implantation and on the final day of the experiment. This enabled the calculation of changes in actual grams of fat and dry lean tissue (e.g., grams of body fat after treatment−grams of body fat at baseline=change in grams of body fat) and changes in % body composition for fat and dry lean tissue (e.g., % body fat after treatment−% body fat at baseline=change in % body fat)."}, "[5]": {"test": "Example 5: amylin and rimonabant (CB-1 antagonist) in DIO rats, body weight and body composition", "assay_type": "in vivo, rat", "conditions": "after two weeks, FIG. 12C", "experimental": "These rats were developed by Barry Levin from a line of Crl:CD®(SD)BR rats that are prone to become obese on a diet relatively high in fat and energy. They were housed individually in shoebox cages at 22 C in a 12/12-hour light dark cycle. […] Rats were habituated to oral gavage for 1 week prior to treatment. Rimonabant was administered at a range of doses (0.1, 0.3, 1.0, 3.0. 10 mg/kg/day) by oral gavage. Amylin (dissolved in 50% DMSO sterile water) or vehicle was administered by mini-pump (100 μg/kg/day). Rimonabant was always delivered just prior to lights out. Food intake and body weight were measured at 1 and 2 weeks post-treatment. Body composition was measured prior to and after drug treatment using NMR (Echo Medical Systems, Houston, Tex.). For body composition measurements, rats were briefly placed (˜1 min) in a well-ventilated plexiglass tube that was then inserted into a specialized rodent NMR machine. Rats were scanned prior to pump implantation and on the final day of the experiment. This enabled the calculation of changes in actual grams of fat and dry lean tissue (e.g., grams of body fat after treatment−grams of body fat at baseline=change in grams of body fat) and changes in % body composition for fat and dry lean tissue (e.g., % body fat after treatment−% body fat at baseline=change in % body fat)."}, "[6]": {"test": "Example 7: amylin and PYY(3-36) in DIO rats, body weight and body composition", "assay_type": "in vivo, rat", "conditions": "after two weeks, FIG. 16C", "experimental": "as §1, with “Food intake and body weight” for “Rat amylin”, “was” for “was dissolved in 50% DMSO in sterile water and sibutramine was dissolved in sterile water. Each group was implanted with subcutaneous osmotic mini-pumps designed to deliver vehicle, sibutramine (3 mg/kg/day) or amylin (100 μg/kg/day) for a 14 day period. Body weight and food intake were”"}, "[7]": {"test": "Example 8: 24-week randomized, double-blind clinical study of pramlintide and metreleptin in overweight and obese subjects", "assay_type": "in vivo, human", "conditions": "for rate of change in body weight, late rate (12-20 weeks): 24-week study, FIG. 24", "experimental": "To evaluate inter alia the safety, tolerability and effect of the combination of an amylin agonist (pramlintide) and a leptin (metreleptin) on changes in body weight, a 24-week, randomized, double-blind, active-drug-controlled, multicenter study was conducted under USFDA approved protocols. Secondary objectives of the study were the determination of the pharmacokinetics of pramlintide and leptin, waist circumference, rate of change in body weight, and patient reported outcomes including for example without limitation perception of well-being related to weight change and mood. The study enrolled overweight and obese subjects with defined BMI ([…]), with enrollment statistics as provided in Table 2. […] Subjects treated with pramlintide/metreleptin lost an average of 25 pounds from the start of the 24-week study compared with an average of 17 pounds for subjects treated with pramlintide alone.\nIn an initial lead-in phase, all subjects received dietary instructions and treatment with pramlintide at 180 mcg BID for two weeks, followed by pramlintide at 360 mcg BID for two weeks. Subjects who completed the 4-week lead-in period and who lost 2-8 percent body weight during this period were eligible to continue the study. The term “enrolled” (Table 2) refers to subjects (N=177) receiving at least one dose of pramlintide during the lead-in period. The term “non-randomized” refers to subjects not continuing in the study past the lead-in period. The term “evaluable” refers to subjects who completed Visit 9 (Week 16) study procedures and adequately complied with the study protocol.\nAfter the 4-week lead-in period, for the remaining 20 weeks of the study the subjects were randomized in a 2:2:1 ratio to one of three groups with BID treatment of 1) pramlintide 360 mcg/metreleptin 5 mg (“Leptin+Pramlintide”); 2) pramlintide 360 mcg/placebo (“Pramlintide”); or 3) metreleptin 5 mg/placebo (“Leptin”)."}},
  "data": [
    {"molecule": "CC(C)(N)Cc1ccccc1", "note": "[phentermine, reference compound]", "values": [
      {"measurement": "changes in body protein (lean (protein) mass)", "setting": "[1]", "value": "unchanged or tended to be lost"}
    ]},
    {"molecule": "Rat amylin", "values": [
      {"measurement": "changes in body protein (lean (protein) mass)", "setting": "[2]", "value": "increase in lean (protein) mass"},
      {"measurement": "plasma (serum) leptin levels, DIO prone animals", "setting": "[3]; DIO prone rats", "value": "significantly reduced"},
      {"measurement": "plasma (serum) leptin levels, normal animals", "setting": "[3]; normal HSD rats", "value": "significantly reduced"},
      {"measurement": "changes in body protein (lean (protein) mass)", "setting": "[4]", "value": "relatively equivalent increase in lean (protein) mass"},
      {"measurement": "changes in body protein (lean (protein) mass)", "setting": "[5]", "value": "relatively equivalent increase in lean (protein) mass"},
      {"measurement": "changes in body protein (lean (protein) mass)", "setting": "[6]", "value": "increase in lean (protein) mass"},
      {"measurement": "changes in body protein (lean (protein) mass)", "setting": "[1]", "value": "preserved lean (protein) mass"}
    ]},
    {"molecule": "Cc1c(C(=O)NN2CCCCC2)nn(-c2ccc(Cl)cc2Cl)c1-c1ccc(Cl)cc1", "note": "[rimonabant, reference compound]", "values": [
      {"measurement": "changes in body protein (lean (protein) mass)", "setting": "[5]", "value": "relatively equivalent increase in lean (protein) mass"}
    ]},
    {"molecule": "CC(C)CC(N(C)C)C1(c2ccc(Cl)cc2)CCC1", "note": "(stereo not drawn) [sibutramine, reference compound]", "values": [
      {"measurement": "changes in body protein (lean (protein) mass)", "setting": "[2]", "value": "relatively unchanged"}
    ]},
    {"molecule": "recombinant methionyl human leptin [metreleptin]", "values": [
      {"measurement": "rate of change in body weight, late rate (12-20 weeks)", "setting": "[7]", "value": "approached a late rate of zero"}
    ]},
    {"molecule": "^14Leu-exendin-4 [Exendin-4 analog]", "values": [
      {"measurement": "changes in body protein (lean (protein) mass)", "setting": "[4]", "value": "relatively equivalent increase in lean (protein) mass"}
    ]},
    {"molecule": "CC[C@H](C)[C@H](NC(=O)[C@@H]1CCCN1C(=O)CNC(=O)[C@H](Cc1ccccc1)NC(=O)[C@H](CC(N)=O)NC(=O)[C@H](CC(N)=O)NC(=O)[C@H](CO)NC(=O)[C@H](CO)NC(=O)[C@H](Cc1c[nH]cn1)NC(=O)[C@@H](NC(=O)[C@H](CC(C)C)NC(=O)[C@H](Cc1ccccc1)NC(=O)[C@H](CC(N)=O)NC(=O)[C@H](C)NC(=O)[C@H](CC(C)C)NC(=O)[C@H](CCCNC(=N)N)NC(=O)[C@H](CCC(N)=O)NC(=O)[C@@H](NC(=O)[C@H](C)NC(=O)[C@@H]1CSSC[C@H](NC(=O)[C@@H](N)CCCCN)C(=O)N[C@@H](CC(N)=O)C(=O)N[C@@H]([C@@H](C)O)C(=O)N[C@@H](C)C(=O)N[C@@H]([C@@H](C)O)C(=O)N1)[C@@H](C)O)C(C)C)C(=O)N[C@@H](CC(C)C)C(=O)N1CCC[C@H]1C(=O)N1CCC[C@H]1C(=O)N[C@H](C(=O)N[C@@H](CC(N)=O)C(=O)N[C@H](C(=O)NCC(=O)N[C@@H](CO)C(=O)N[C@@H](CC(N)=O)C(=O)N[C@H](C(=O)N[C@@H](Cc1ccc(O)cc1)C(N)=O)[C@@H](C)O)C(C)C)[C@@H](C)O", "note": "[pramlintide, ^25,28,29Pro-h-amylin]", "values": [
      {"measurement": "Mean Change in Body Weight (kg) over lead-in period", "setting": "[7]; 4-week lead-in, all subjects received pramlintide 180 then 360 mcg BID, columns name the later randomization groups", "value": -3.65, "unit": "kg"},
      {"measurement": "rate of change in body weight, late rate (12-20 weeks)", "setting": "[7]", "value": "approached a late rate of zero"},
      {"measurement": "body weight reduced on average at the end of the 24-week study", "setting": "[7]; overweight and obese subjects, pramlintide 360 mcg BID, metreleptin 5 mg BID, p<0.001", "value": 8.4, "unit": "%"}
    ]}
  ]
}
